Assays:
[1] = compound: O=[As]([O-])(O)O.[K+] [potassium arsenate]; experiment: thermal stability z-score vs DMSO; higher = more thermally stabilized by treatment; details: HeLa; arsenate concentration 1 mM
Procedure: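 Cellular thermal proteome profiling in HeLa cells treated with 1 mM arsenate for 1 h (DMSO pretreatment), heated to ten temperatures (37-66.3 °C). Soluble protein was quantified by TMT mass spectrometry relative to DMSO controls; the thermal stability score was transformed to a z-score; mean of n = 3 experiments.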

[2] = compound: NC(=O)CCCCC1CCSS1 [lipoamide]; experiment: as above; details: HeLa, lipoamide concentration 100 µM
Procedure: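 Cellular thermal proteome profiling in HeLa cells. Cells were treated with 100 µM lipoamide for 1 h, with or without 1 mM arsenate for a further 1 h, then heated to ten temperatures (37-66.3 °C), and soluble protein was quantified by TMT mass spectrometry relative to 0.1% DMSO controls. The thermal stability score (sum of log2 fold changes minus the abundance score) was transformed to a z-score; mean of n = 3 experiments.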

[3] = arsenate co-treatment: 1 mM arsenate 1 h
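Further: each temperature applied for 3 min, abundance score taken as mean log2 fold change at the two lowest temperatures, z-score obtained by mean subtraction and division by SD.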

Chain of UniProt O60907 (O60907 whole entry): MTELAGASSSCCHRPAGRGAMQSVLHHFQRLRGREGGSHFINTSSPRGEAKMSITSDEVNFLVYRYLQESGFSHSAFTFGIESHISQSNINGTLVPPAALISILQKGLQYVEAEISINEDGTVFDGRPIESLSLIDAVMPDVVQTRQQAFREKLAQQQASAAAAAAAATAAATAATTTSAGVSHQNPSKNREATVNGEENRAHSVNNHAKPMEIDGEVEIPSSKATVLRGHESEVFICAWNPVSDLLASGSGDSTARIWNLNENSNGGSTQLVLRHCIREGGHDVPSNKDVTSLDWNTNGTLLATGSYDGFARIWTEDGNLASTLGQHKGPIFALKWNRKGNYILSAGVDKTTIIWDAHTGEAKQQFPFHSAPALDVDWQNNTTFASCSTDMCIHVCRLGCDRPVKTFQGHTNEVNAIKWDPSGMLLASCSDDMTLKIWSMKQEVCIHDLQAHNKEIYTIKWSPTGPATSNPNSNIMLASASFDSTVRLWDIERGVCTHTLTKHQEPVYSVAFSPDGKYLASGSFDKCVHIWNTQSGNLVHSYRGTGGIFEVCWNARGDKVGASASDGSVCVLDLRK
Chain of UniProt Q96FC9 (Q96FC9 whole entry): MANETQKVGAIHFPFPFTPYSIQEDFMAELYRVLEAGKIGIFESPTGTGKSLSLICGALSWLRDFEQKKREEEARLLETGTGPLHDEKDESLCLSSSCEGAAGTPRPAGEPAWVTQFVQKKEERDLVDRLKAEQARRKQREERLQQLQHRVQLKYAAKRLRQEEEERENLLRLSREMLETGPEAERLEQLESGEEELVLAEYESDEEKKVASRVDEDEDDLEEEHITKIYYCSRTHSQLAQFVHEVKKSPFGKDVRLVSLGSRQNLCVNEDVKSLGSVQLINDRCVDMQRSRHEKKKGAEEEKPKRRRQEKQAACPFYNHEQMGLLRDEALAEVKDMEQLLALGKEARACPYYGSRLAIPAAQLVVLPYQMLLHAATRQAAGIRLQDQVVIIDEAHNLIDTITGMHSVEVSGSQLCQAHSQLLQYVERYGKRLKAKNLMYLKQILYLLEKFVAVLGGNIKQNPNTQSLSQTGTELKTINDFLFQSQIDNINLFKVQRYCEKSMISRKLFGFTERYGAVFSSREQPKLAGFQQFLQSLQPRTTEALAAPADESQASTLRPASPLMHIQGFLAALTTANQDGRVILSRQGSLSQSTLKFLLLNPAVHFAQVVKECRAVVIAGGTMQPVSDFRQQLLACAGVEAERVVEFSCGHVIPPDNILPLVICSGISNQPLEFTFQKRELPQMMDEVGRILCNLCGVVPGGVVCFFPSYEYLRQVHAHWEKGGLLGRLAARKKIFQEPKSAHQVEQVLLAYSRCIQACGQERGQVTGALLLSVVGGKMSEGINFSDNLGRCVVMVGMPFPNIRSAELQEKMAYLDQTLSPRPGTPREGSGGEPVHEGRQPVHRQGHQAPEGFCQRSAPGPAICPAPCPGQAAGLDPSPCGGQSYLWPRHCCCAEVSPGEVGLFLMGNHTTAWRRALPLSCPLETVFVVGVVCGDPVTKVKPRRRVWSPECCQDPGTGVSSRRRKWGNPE
Chain of UniProt Q13425 (Q13425 whole entry): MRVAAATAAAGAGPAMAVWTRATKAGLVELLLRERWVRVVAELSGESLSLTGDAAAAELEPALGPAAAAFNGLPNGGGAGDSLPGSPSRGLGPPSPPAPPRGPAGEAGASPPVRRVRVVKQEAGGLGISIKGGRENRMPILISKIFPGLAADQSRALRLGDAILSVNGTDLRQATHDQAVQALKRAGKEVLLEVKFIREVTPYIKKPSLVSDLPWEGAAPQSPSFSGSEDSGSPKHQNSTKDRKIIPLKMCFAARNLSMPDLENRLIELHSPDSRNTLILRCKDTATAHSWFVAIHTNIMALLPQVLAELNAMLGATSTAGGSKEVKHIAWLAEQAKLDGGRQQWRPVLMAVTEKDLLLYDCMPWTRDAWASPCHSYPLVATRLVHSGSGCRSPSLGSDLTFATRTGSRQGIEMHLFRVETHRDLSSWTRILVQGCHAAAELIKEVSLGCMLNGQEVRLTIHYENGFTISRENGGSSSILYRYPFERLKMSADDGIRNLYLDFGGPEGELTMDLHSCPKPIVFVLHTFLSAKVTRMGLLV
Chain of UniProt Q12933 (Q12933 whole entry): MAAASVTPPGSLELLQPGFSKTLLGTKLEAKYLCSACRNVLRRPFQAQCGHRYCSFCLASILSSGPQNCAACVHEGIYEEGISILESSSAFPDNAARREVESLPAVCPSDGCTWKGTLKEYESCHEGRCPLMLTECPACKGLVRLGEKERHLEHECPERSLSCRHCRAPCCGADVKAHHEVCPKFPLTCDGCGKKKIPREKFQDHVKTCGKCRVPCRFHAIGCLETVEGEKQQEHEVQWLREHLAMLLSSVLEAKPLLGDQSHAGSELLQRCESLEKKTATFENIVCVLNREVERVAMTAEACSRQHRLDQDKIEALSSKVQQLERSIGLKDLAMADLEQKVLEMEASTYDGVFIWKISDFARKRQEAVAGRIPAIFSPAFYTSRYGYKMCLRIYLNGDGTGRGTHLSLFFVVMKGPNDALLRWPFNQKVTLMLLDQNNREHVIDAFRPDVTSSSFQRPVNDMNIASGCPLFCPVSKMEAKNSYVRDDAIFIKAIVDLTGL
Chain of UniProt O95633 (O95633 whole entry): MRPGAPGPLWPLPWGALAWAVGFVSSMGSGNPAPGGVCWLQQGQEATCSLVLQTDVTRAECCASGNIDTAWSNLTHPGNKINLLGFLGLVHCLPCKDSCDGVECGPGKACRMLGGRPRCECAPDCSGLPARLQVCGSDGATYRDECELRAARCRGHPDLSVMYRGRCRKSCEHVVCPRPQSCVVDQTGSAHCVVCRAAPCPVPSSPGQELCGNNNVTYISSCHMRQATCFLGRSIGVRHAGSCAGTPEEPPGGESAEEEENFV
Chain of UniProt Q15742 (Q15742 whole entry): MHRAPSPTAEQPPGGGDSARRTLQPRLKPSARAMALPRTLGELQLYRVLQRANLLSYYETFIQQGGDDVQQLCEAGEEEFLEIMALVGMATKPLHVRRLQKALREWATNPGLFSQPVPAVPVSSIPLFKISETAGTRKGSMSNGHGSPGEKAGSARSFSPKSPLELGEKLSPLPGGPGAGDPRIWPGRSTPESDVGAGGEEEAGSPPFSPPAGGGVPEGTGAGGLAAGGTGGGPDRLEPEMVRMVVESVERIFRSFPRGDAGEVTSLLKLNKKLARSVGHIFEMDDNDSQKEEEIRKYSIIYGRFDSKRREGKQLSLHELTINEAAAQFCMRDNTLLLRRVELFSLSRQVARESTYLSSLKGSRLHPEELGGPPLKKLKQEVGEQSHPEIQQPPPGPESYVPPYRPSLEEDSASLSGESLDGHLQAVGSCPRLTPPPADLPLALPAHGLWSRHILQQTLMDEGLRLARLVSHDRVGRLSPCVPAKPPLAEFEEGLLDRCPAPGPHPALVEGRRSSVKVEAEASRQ
Chain of UniProt Q8N5I2 (Q8N5I2 whole entry): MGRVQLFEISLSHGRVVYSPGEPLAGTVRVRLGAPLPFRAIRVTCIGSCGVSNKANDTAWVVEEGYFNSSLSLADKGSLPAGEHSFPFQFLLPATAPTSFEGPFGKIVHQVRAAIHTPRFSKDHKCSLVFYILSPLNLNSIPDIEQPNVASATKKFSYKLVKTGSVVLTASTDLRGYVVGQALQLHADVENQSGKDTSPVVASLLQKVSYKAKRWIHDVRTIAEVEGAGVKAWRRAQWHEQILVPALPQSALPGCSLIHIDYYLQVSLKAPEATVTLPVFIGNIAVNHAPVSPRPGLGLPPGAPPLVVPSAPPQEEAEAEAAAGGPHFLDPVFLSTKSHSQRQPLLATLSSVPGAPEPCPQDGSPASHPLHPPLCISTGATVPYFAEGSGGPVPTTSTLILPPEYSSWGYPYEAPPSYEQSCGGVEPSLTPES
Chain of UniProt Q9BWT3 (Q9BWT3 whole entry): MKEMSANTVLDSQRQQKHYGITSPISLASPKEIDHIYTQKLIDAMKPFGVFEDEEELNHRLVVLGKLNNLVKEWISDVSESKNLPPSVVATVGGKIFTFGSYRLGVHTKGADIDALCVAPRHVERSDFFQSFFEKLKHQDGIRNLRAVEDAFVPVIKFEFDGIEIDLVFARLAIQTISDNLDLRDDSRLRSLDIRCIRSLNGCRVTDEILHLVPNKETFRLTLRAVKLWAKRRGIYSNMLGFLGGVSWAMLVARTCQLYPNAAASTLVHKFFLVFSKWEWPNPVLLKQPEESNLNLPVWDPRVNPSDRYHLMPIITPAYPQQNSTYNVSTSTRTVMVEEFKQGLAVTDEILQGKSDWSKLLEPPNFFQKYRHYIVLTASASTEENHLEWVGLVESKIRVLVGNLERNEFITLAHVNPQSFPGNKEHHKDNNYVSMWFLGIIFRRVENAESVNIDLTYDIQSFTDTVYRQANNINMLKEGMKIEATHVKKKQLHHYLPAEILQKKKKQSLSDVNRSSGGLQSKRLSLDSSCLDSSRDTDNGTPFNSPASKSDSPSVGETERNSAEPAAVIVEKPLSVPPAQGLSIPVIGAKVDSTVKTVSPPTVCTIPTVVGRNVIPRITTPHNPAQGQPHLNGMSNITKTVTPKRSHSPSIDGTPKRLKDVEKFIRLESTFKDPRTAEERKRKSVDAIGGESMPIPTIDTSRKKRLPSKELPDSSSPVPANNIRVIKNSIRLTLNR

| Target | thermal stability z-score [1] | thermal stability z-score [2, 3] | thermal stability z-score ([2]; arsenate co-treatment: none) |
| --- | --- | --- | --- |
| SEC24C (UniProt P53992) | 0.38 | 0.0998 | 0.0631 |
| SCLY (UniProt Q96I15) | -0.415 | 0.111 | 0.27 |
| ANKRD17 (UniProt O75179) | -0.27 | -0.568 | -0.123 |
| ANXA2 (UniProt P07355) | 0.066 | 1.59 | 1.79 |
| CCND1 (UniProt P24385) | 0.0378 | -0.0213 | -0.202 |
| NCS1 (UniProt P62166) | -0.124 | -0.202 | -0.195 |
| NAB2 (UniProt Q15742) | 1.18 | -0.402 | -2.02 |
| PISD (UniProt Q9UG56) | 0.0415 | 0.488 | 0.414 |
| SNTB2 (UniProt Q13425) | -0.227 | 0.14 | -0.309 |
| NPR3 (UniProt P17342) | -0.486 | 0.2 | -0.339 |
| STK38L (UniProt Q9Y2H1) | 0.201 | 0.0467 | 0.0651 |
| PPP2R5D (UniProt Q14738) | 0.228 | -0.378 | -0.239 |
| EIF4A3 (UniProt P38919) | -0.492 | -0.155 | 0.154 |
| AP3B1 (UniProt O00203) | 0.404 | -0.0343 | 0.0807 |
| TTK (UniProt P33981) | 0.742 | -0.85 | -0.0774 |
| AGR2 (UniProt O95994) | -0.355 | -2.84 | -2.57 |
| ITPR1 (UniProt Q14643) | -0.46 | -0.434 | -0.461 |
| FBXW11 (UniProt Q9UKB1) | 0.814 | 0.162 | -0.0669 |

| Target | thermal stability z-score [1] | thermal stability z-score [2, 3] | thermal stability z-score ([2]; arsenate co-treatment: none) |
| --- | --- | --- | --- |
| TRAF2 (UniProt Q12933) | -4.2 | -0.41 | -0.458 |
| SHC1 (UniProt P29353) | 0.126 | -0.383 | 0.739 |
| ITGAV (UniProt P06756) | -0.323 | -0.283 | -0.316 |
| AHCYL1 (UniProt O43865) | -6.61 | 0.156 | -0.134 |
| CAMSAP2 (UniProt Q08AD1) | -1.05 | -0.52 | -0.353 |
| DDX1 (UniProt Q92499) | -0.304 | 0.085 | 0.274 |
| DCTD (UniProt P32321) | -0.736 | 0.038 | -0.504 |
| DDX11 (UniProt Q96FC9) | 1.07 | -0.753 | -0.517 |
| TIMM23 (UniProt O14925) | 0.0795 | 0.248 | -0.124 |
| ZGPAT (UniProt Q8N5A5) | -0.307 | -0.303 | -0.13 |
| PIK3R3 (UniProt Q92569) | 0.0593 | 0.191 | -0.186 |
| FSTL3 (UniProt O95633) | 0.0815 | -3.19 | -2.34 |
| ARRDC1 (UniProt Q8N5I2) | 0.121 | -0.245 | 0.802 |
| PAPOLG (UniProt Q9BWT3) | 0.167 | -0.086 | 0.083 |
| TBL1X (UniProt O60907) | 0.341 | 0.835 | -0.0254 |
| PIGN (UniProt O95427) | 0.41 | 0.0724 | -0.0621 |
| TUBB2A (UniProt Q13885) | 0.692 | 0.383 | 0.458 |
| ORC4 (UniProt O43929) | -0.113 | -0.121 | -0.0936 |
